Data as given in patent publication US20240174618A1, “SUBSTITUTED (2-HETEROARYLOXYPHENYL)SULFONATES, SALTS THEREOF AND THEIR USE AS HERBICIDAL AGENTS” (Bayer Aktiengesellschaft, priority 2021, published 2024).

Key:
Assay type in all cases: in vivo
Poa annua (POAAN) [1] = assay: A. Herbicidal pre-emergence efficacy, POAAN
Method in brief: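 Applied before emergence onto covering soil at rates of 1280 g/ha or less, using 600 L/ha spray water with 0.5% additive. Scoring: visual % efficacy after ~3 weeks, greenhouse.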

[2] = tested on: Digitaria sanguinalis (DIGSA); assay: B. Herbicidal post-emergence efficacy, DIGSA; settings: rated visually after about 3 weeks
Method in brief: (§1)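 First, seeds were sown in sandy loam and grown 2 to 3 weeks under controlled greenhouse conditions. Next, foliage at the one-leaf stage received the formulated compound in water with 0.5% additive (600 L/ha, 1280 g/ha or less). Finally, damage was rated visually after about 3 weeks against untreated plants.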

[3] = tested on: Echinochloa crus-galli (ECHCG); assay: B. Herbicidal post-emergence efficacy, ECHCG; settings: rated visually after about 3 weeks
Method in brief: as §1

Poa annua (POAAN) [4] = assay: B. Herbicidal post-emergence efficacy, POAAN
Method in brief: as §1

[5] = tested on: Abutilon theophrasti (ABUTH); assay: C. Herbicidal pre-emergence efficacy, ABUTH; settings: scored after about 3 weeks
Method in brief: (§2)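 Pre-emergence test: formulated compounds sprayed as aqueous suspension or emulsion with 0.5% additive at 600 l/ha onto soil covering sown seeds, at rates corresponding to 320 g/ha or less. After about 3 weeks in greenhouse, efficacy scored visually as percent versus untreated controls (100% = plants dead).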

Viola tricolor (VIOTR) = assay: C. Herbicidal pre-emergence efficacy, VIOTR
Method in brief: as §2

[6] = tested on: Pharbitis purpurea (PHBPU); assay: E. Herbicidal post-emergence efficacy, PHBPU
Method in brief: (§3)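 Compounds applied at 320 g/ha or less as a foliar spray (600 l/ha, 0.5% additive) to one-leaf-stage greenhouse plants grown in sandy loam. Damage is visually scored in percent relative to untreated plants after about 3 weeks.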

Setaria viridis (SETVI) = assay: E. Herbicidal post-emergence efficacy, SETVI
Method in brief: as §3

Compound	Pre-emergence efficacy against POAAN (Poa annua (POAAN) [1]; dosage 320 g/ha)	Pre-emergence efficacy against POAAN (Poa annua (POAAN) [1]; dosage 1280 g/ha)	Post-emergence efficacy against DIGSA in % ([2]; 1280 g/ha)	Post-emergence efficacy against ECHCG in % ([3]; 1280 g/ha)	Post-emergence efficacy against POAAN (Poa annua (POAAN) [4]; 1280 g/ha)	Pre-emergence efficacy against ABUTH ([5]; 320 g/ha)	Pre-emergence efficacy against POAAN (Poa annua (POAAN) [1]; dosage 80 g/ha)	Post-emergence efficacy against DIGSA in % ([2]; 320 g/ha)	Post-emergence efficacy against ECHCG in % ([3]; 320 g/ha)	Post-emergence efficacy against POAAN (Poa annua (POAAN) [4]; 80 g/ha)	Post-emergence efficacy against POAAN (Poa annua (POAAN) [4]; 320 g/ha)	Pre-emergence efficacy against ABUTH ([5]; 80 g/ha)	Pre-emergence efficacy against VIOTR in % (Viola tricolor (VIOTR); application rate 80 g/ha)	Pre-emergence efficacy against VIOTR in % (Viola tricolor (VIOTR); application rate 320 g/ha)	Post-emergence efficacy against PHBPU in % ([6]; application rate 80 g/ha)	Post-emergence efficacy against PHBPU in % ([6]; application rate 320 g/ha)	Post-emergence efficacy against SETVI in % (Setaria viridis (SETVI); application rate 80 g/ha)	Post-emergence efficacy against SETVI in % (Setaria viridis (SETVI); application rate 320 g/ha)
O=S(=O)(CCCCl)Oc1cccc(F)c1Oc1ncc(Cl)cn1 [Example I-13]	90%	100%	90%	90%	100%	90%												
O=S(=O)(CCCCl)Oc1c(F)cccc1Oc1ncc(Cl)cn1 [Example I-14]	100%	100%	100%	100%	100%	100%	100%	100%	100%	90%	100%	90%	100%	100%	100%	100%	100%	100%
O=S(=O)(CC1CC1)Oc1ccccc1Oc1ncc(Cl)cn1 [Example I-23]	90%	90%	100%	90%	100%	100%	90%	90%	90%	90%	90%	100%	100%	100%		100%	80%	100%
CCCCCS(=O)(=O)Oc1ccccc1Oc1ncc(Cl)cn1 [Example I-24]	100%	100%	90%	100%	100%			90%			90%		80%	80%		80%		100%
O=S(=O)(CCCC(F)(F)F)Oc1c(Br)cccc1Oc1ncc(Cl)cn1 [Example I-30]	100%	100%	90%	90%	100%		90%		90%		90%							
O=S(=O)(CCC(F)(F)F)Oc1c(Br)cccc1Oc1ncc(Cl)cn1 [Example I-31]	100%	100%	90%	100%	100%		90%				90%							
O=S(=O)(CCC(F)(F)F)Oc1c(Cl)cccc1Oc1ncc(Cl)cn1 [Example I-38]	100%	100%	90%		90%	100%						100%	100%	100%	100%	100%	100%	100%
O=S(=O)(CCCC(F)(F)F)Oc1c(Cl)cccc1Oc1ncc(Cl)cn1 [Example I-39]	100%	100%	90%		90%	100%					90%	100%	100%	100%	90%	100%	100%	100%
O=S(=O)(CCC(F)(F)F)Oc1c(F)cccc1Oc1ncc(Br)cn1 [Example I-40]	100%	100%	90%		90%	100%	100%	90%			90%	100%	100%	100%	100%	100%	100%	100%
O=S(=O)(CCCC(F)(F)F)Oc1c(F)cccc1Oc1ncc(Br)cn1 [Example I-41]	100%	100%	90%		90%	100%	100%	90%			90%	100%	100%	100%	100%	100%	100%	100%
COCCS(=O)(=O)Oc1c(F)cccc1Oc1ncc(Cl)cn1 [Example I-52]	90%	100%	90%	90%	90%	100%					90%	80%	100%	100%				80%
O=S(=O)(CCC1CC1)Oc1c(F)cccc1Oc1ncc(Cl)cn1 [Example I-55]	90%	100%	90%	90%	90%			90%	90%		90%			100%	90%	100%	80%	90%
O=S(=O)(CCC(F)=C(F)F)Oc1c(Cl)cccc1Oc1ncc(Cl)cn1 [Example I-73]	90%	100%	100%	100%	100%	90%		90%	90%					100%				
